{
  "source": "paper PMC11530130",
  "about": "“Peripherally restricted PICK1 inhibitor mPD5 ameliorates pain behaviors in murine inflammatory and neuropathic pain models” (JCI Insight, 2024)",
  "tested_on": "mice, spared nerve injury (SNI) model",
  "assay": "SNI model of neuropathic pain, von Frey, single s.c. dose, male mice day 7",
  "format": "in vivo, mouse",
  "procedure": "Induction of neuropathic pain (SNI model).\nThe initial SNI pain experiment (Figure 4A) was performed by Phenotype Expertise, Marseilles, France – Pain and CNS behaviour CRO under supervision of Stéphane Gaillard, PhD (CEO). Surgery was performed on 8-week-old C57BL/6J male mice (Charles River). The spared nerve injury surgery was performed on anaesthetized mice with a buprenorphine […]\nsolution (0.05 mg/kg) injected s.c. 30 min before surgery (10 μL/g). For surgery, mice were anaesthetised with ketamine (100 mg/kg, i.p.) and xylazine (10 mg/kg, i.p.) (volume 10 µL/g) with 100 μL of 1% xylocaine solution infiltrated at the site of the incision. The distal trifurcation of the sciatic nerve was identified, and the tibial and common peroneal branches were ligated with polypropylene nonabsorbable 6-0 sutures (Ethicon) and 1 mm was cut out, leaving the sural branch intact. The wound was closed with sutures, and the animals were allowed to recover and returned to their cages. Two subcutaneous injections of buprenorphine (0.05 mg/kg) were performed with an 8 to 12 hours delay decreasing pain due to the surgery […]\nThe remaining SNI pain experiments were performed in-house using the following procedure.\nSNI surgery was performed on the left hindleg of C57BL/6J male and female mice (Janvier, France) under 2% isoflurane anaesthesia. Skin on the lateral surface was incised between hip and knee followed by lengthwise division of the biceps femoris muscle leading to exposure of the three branches of the sciatic nerve. Sural branch was left intact, while the peroneal and tibial branches were ligated with a single surgical knot and axotomized distally of the ligation.\nWounds were closed with surgical glue or medical clips and animals were monitored daily for signs of stress or discomfort, but in all cases recovered uneventfully.\nInduction of Diabetic neuropathy (STZ model).\nDiabetes was induced by a single i.p. injection of […] streptozocin (STZ) solution (100 μL/10 g, Sigma-Aldrich S0130, batch #WXBB7152V) in male seven-week-old C57BL/6J (Charles River) mice. Glycemia was tested before, and seven days after injection. All injected mice had blood glucose concentration >350 mg/dL from day seven and were used for analgesic testing of the compounds from day 14. One mouse had to be euthanized at seven days post injection. This experiment was performed by Phenotype Expertise, Marseilles, France - Pain and CNS behaviour CRO under supervision of Stéphane Gaillard, PhD (CEO).\nInduction of cancer induced bone pain (CIBP model).\nOsteosarcoma cell line NCTC 2472 (American Type Culture Collection, CCL-11TM) was cultured for two weeks prior to surgery in NCTC-135 medium (Sigma-Aldrich, Denmark) supplemented with sodium hydrogen carbonate and 10% equine serum (Sigma-Aldrich, Denmark). On the day of surgery, cells were washed with PBS and incubated with 3 mL trypsin-EDTA for five min followed by centrifugation (2800 rpm, 3 min). Supernatant was removed, and cell pellet resuspended in PBS to obtain a cell density of 10^7 cells/mL.\nTwo separate cohorts of female C3H/HeNHsd mice (Envigo, Netherlands) of 7-8 weeks, were anaesthetized with 6.25 mg/kg xylazine (Rompun vet, 20 mg/mL, Bayer, KVP Pharma + Veterinär Produkte GmbH, Germany, Batch: KV02BHF) and 43.75 mg/kg ketamine (Ketaminol vet, 100 mg/mL, MSD Animal Health, AN Boxmeer, The Netherlands, Batch:\nA140A01) and received 1.0-1.2% isoflurane (1000 mg/g isoflurane, Attane vet, ScanVet, Piramal Critical Care Ltd., UK, Batch: G123J18B) during surgery. The mouse was placed on a 37 °C heating pad. Both hind legs were shaved, and a small horizontal incision was made under the knee followed by a vertical incision of approximately 0.5 cm until the patellar tendon was exposed. The patellar tendon was moved to the lateral side exposing the distal epiphysis of the femur. A hole was made in the middle of the distal epiphysis by gently pushing a 30 G needle (0.3x12 mm, 30 Gx1/2”, Luer-Lock, CHIRANA T. Injecta, CH30012) through the bone […]\nwhile rotating. […]",
  "note": "Several values for one entry are separate records, joined by “and”; a condition that tells them apart may be missing. Equal entries are not always repeated.",
  "data": [
    {"smiles": "CCCCCCCCCCCCCC(=O)N(CCOCCOCCC(=O)N[C@@H](Cc1c[nH]cn1)C(=O)N[C@@H](Cc1c[nH]c2ccccc12)C(=O)N[C@@H](CC(C)C)C(=O)N[C@@H](CCCCN)C(=O)N[C@H](C(=O)O)C(C)C)CCOCCOCCC(=O)N[C@@H](Cc1c[nH]cn1)C(=O)N[C@@H](Cc1c[nH]c2ccccc12)C(=O)N[C@@H](CC(C)C)C(=O)N[C@@H](CCCCN)C(=O)N[C@H](C(=O)O)C(C)C", "note": "[mPD5, myristoyl-NPEG4-(HWLKV)2]", "values": [
      {"measurement": "effect on mechanical hypersensitivity (PWT)", "setting": "SNI day 7, male mice, s.c. 2 μmol/kg", "result": "no significant effect"},
      {"measurement": "duration of significant reduction of mechanical hypersensitivity", "setting": "SNI day 7, male mice, s.c. 10 μmol/kg", "result": "up to 3 hours"},
      {"measurement": "von Frey paw withdrawal threshold, individual animals (Fig 5B)", "setting": "dose group 2, contra, BL", "result": "2 and 1.4 (4×) and 1"},
      {"measurement": "von Frey paw withdrawal threshold, individual animals (Fig 5B)", "setting": "dose group 2, contra, time 0", "result": "1.4 (2×) and 1 (4×)"},
      {"measurement": "von Frey paw withdrawal threshold, individual animals (Fig 5B)", "setting": "dose group 2, contra, time 1", "result": 1},
      {"measurement": "von Frey paw withdrawal threshold, individual animals (Fig 5B)", "setting": "dose group 2, injured side, BL", "result": "2 (2×) and 1.4 (4×)"},
      {"measurement": "von Frey paw withdrawal threshold, individual animals (Fig 5B)", "setting": "dose group 2, injured side, time 0", "result": "0.07 (2×) and 0.16 (3×) and 0.4"},
      {"measurement": "von Frey paw withdrawal threshold, individual animals (Fig 5B)", "setting": "dose group 2, injured side, time 1", "result": "0.6 (2×) and 1 (3×) and 1.4"},
      {"measurement": "von Frey paw withdrawal threshold, individual animals (Fig 5B)", "setting": "dose group 10, contra, BL", "result": "1.4 (5×) and 1"},
      {"measurement": "von Frey paw withdrawal threshold, individual animals (Fig 5B)", "setting": "dose group 10, contra, time 0", "result": "1 (4×) and 1.4 (2×)"},
      {"measurement": "von Frey paw withdrawal threshold, individual animals (Fig 5B)", "setting": "dose group 10, contra, time 1", "result": "1 (3×) and 1.4 (3×)"},
      {"measurement": "von Frey paw withdrawal threshold, individual animals (Fig 5B)", "setting": "dose group 10, injured side, BL", "result": "1.4 (5×) and 1"},
      {"measurement": "von Frey paw withdrawal threshold, individual animals (Fig 5B)", "setting": "dose group 10, injured side, time 0", "result": "0.16 (2×) and 0.07 (3×) and 0.4"},
      {"measurement": "von Frey paw withdrawal threshold, individual animals (Fig 5B)", "setting": "dose group 10, injured side, time 1", "result": "1.4 (2×) and 1"},
      {"measurement": "von Frey paw withdrawal threshold, individual animals (Fig 5B)", "setting": "dose group 50, contra, BL", "result": "1.4 (4×) and 1 (2×)"},
      {"measurement": "von Frey paw withdrawal threshold, individual animals (Fig 5B)", "setting": "dose group 50, contra, time 0", "result": "1.4 (3×) and 1 (3×)"},
      {"measurement": "von Frey paw withdrawal threshold, individual animals (Fig 5B)", "setting": "dose group 50, contra, time 1", "result": "1.4 (4×) and 1 (2×)"},
      {"measurement": "von Frey paw withdrawal threshold, individual animals (Fig 5B)", "setting": "dose group 50, injured side, BL", "result": "1.4 (5×) and 1"},
      {"measurement": "von Frey paw withdrawal threshold, individual animals (Fig 5B)", "setting": "dose group 50, injured side, time 0", "result": "0.07 (2×) and 0.16 (2×) and 0.4 (2×)"},
      {"measurement": "von Frey paw withdrawal threshold, individual animals (Fig 5B)", "setting": "dose group 50, injured side, time 1", "result": "1 (3×) and 1.4 (2×) and 2"}
    ]}
  ]
}
